Results published in article PMC5117956 (Drug Design, Development and Therapy, 2016).

Columns and labels:
[1] = In vivo PK experiment: oral SQV with or without oral RESV; parameters: species or system rat; conditions: rats
[2] = clinical practice; cited from earlier work
[3] = low solubility and high permeability; cited from earlier work

Effect of coadministration on Cmax of SQV ([1]; RESV 20 mg/kg oral with SQV 30 mg/kg oral, P>0.05)	Time of first peak in plasma levels ([1]; SQV 30 mg/kg oral, RESV (20 mg/kg) treatment group) [h]	Time of second peak in plasma levels ([1]; SQV 30 mg/kg oral, both groups (with or without RESV 20 mg/kg))	Time of first peak in plasma levels ([1]; SQV 30 mg/kg oral, control group)	Compound	Coefficient of variation (CV) of oral bioavailability [2] [%]	Oral bioavailability [2]	Biopharmaceutics Classification System class [3]
not significantly affected	–	–	–	Oc1ccc(/C=C/c2cc(O)cc(O)c2)cc1 [RESV, resveratrol]	–	–	–
–	~0.25	~ 4 h	~ 0.5 h	CC(C)(C)NC(=O)[C@@H]1C[C@@H]2CCCC[C@@H]2CN1C[C@@H](O)[C@H](Cc1ccccc1)NC(=O)[C@H](CC(N)=O)NC(=O)c1ccc2ccccc2n1 [SQV, saquinavir]	> 100	~ 4%	class II
